Measurements taken from patent US8846880B2, “Synthetic analogues of phosphatidyl-myo-inositol mannosides with an inhibitory activity of the inflammatory response” (Centre National de la Recherche Scientifique—CNRS—, priority 2008, dated 2014).

Assays:
TNF-α = TNF-α secretion by LPS-stimulated bone-marrow-derived primary macrophages (ELISA); format: cell-based, mouse; settings: LPS 100 ng/ml, 24 hours
Description: (§1) Murine bone marrow cells were obtained from femurs of wild-type mouse lines. The cells obtained were cultured (10^6/ml) for 7 days in DMEM medium (Dulbecco's modified Eagle's medium) supplemented with 20% of horse serum and 30% of L929 cell-conditioned medium. Three days after renewal of the medium, the cell preparation comprises a homogeneous population of macrophages.
(§2) The macrophages derived from the bone marrow of wild-type mice were cultured on 96-well culture plates in the proportion of 10^5 cells per well, and were then stimulated with LPS (100 ng/ml, Escherichia. coli, serotype O111:B4, Sigma) with or without PIM analog (1-10 μg/ml). All the freeze-dried PIM analog preparations used are solubilized in DMSO and added to the cultures at a noncytotoxic maximum final concentration of 1%.
(§3) After stimulation for 24 hours, the culture supernatants were collected and analyzed for their content of TNF-α, IL-6, IL-12p40 and KC cytokines by ELISA (Duoset, R&D) and for their nitrite content by means of the Griess reaction.
(§4) The macrophages derived from the bone marrow of wild-type mice were cultured on 96-well culture plates in a proportion of 10^5 cells per well, and then stimulated with LPS (100 ng/ml, Escherichia coli, serotype […], Sigma) with isoPIM1C16C18 (SFPIM219) (1-10 μg/ml) or a DMSO control. The preparation of freeze-dried SFPIM219 which is used is solubilized in DMSO and added to the cultures at a noncytotoxic maximum final concentration of 1%.
(§5) After stimulation for 24 hours, the culture supernatents were collected and analyzed for their content of cytokines TNF-α or IL-12p40 by ELISA (R&D Duoset, Minneapolis, Mo.). The results correspond to the mean±SD of n=2 mice per genotype.
(§6) The macrophages derived from the bone marrow of wild-type mice were cultured on 96-well culture plates in a proportion of 10^5 cells per well, and then stimulated with LPS (100 ng/ml, Escherichia coli, serotype O111:B4, Sigma) with PIM1 (SFPIM145), isoPIM1C16C18 (SFPIM219) or the compounds PIM-2-mimNCOCF3 (SFPIM324 t2) and PIM-2-mimNH(SFPIM324 t8) (titrated at 1, 3, 10, 30 μg/ml) or DMSO controls. The freeze-dried SFPIM145, SFPIM219, SFPIM324 t2 and SFPIM324 t8 preparations that were used are solubilized in DMSO and added to the cultures at a noncytotoxic maximum final concentration of 1%.

IL-12p40 = IL-12p40 secretion by LPS-stimulated primary macrophages (ELISA); format: cell-based, mouse
Description: as §1, §2, §3, §4, §5, §6

macrophages = experiment: MTT cytotoxicity / cell viability assay on the same macrophages; format: cell-based, mouse
KC [1] = experiment: Chemokine KC production by LPS-stimulated macrophages (ELISA); format: cell-based, mouse; settings: 10 μg/ml (FIG. 7)
Description: as §1, §2, §3

C57BL/6 mice [2] = experiment: Inflammatory cell recruitment in bronchoalveolar lavage after intranasal LPS; format: in vivo, mouse
Description: (§7) C57BL/6 mice received the vehicle alone (saline with 1.25% DMSO) or LPS (1 μg per mouse) from Escherichia coli (serotype […]; Sigma, St Louis, Mo., USA) in the absence or in the presence of PIM1 (SFPIM135) or of isoPIM1-2C16 (SFPIM91) (50 μg/mouse), applied by nasal instillation in a volume of 40 μl under light anesthesia with ketamine-xylazine.
(§8) The BAL fluid is collected by canulating the trachea and washing the lungs four times with 0.5 ml of cold PBS. After centrifugation at 400×g for 10 min at 4° C., the supernatant from the first lavage is stored at −70° C. for the cytokine analysis. Pools of cell pellets are counted with Trypan blue (Sigma) in a hemocytometer cell. For differential counting, the cells are stained with Diff-Quik Staining (Merz & Dade AG., Dudingen, Switzerland). Two times one hundred cells are counted.

C57BL/6 mice [3] = experiment: In vivo model of respiratory distress: Penh by noninvasive plethysmography after intranasal LPS; parameters: species or system mouse
Description: as §7
The resistance of the respiratory tracts was evaluated by noninvasive plethysmography over a period of 3 hours after the application of LPS. Awake mice were placed in plethysmography chambers (EMKA Technologies, Paris, France). The increase in respiratory pause (Penh), as measurement of respiratory discomfort, was recorded and analyzed using the Datanalyst Software (EMKA Technologies, Paris, France), and expressed as mean±SEM of Penh of n=2-3 individual mice per group.
TNF is essential for LPS-induced acute respiratory dysfunction, as has been shown in TNF-deficient mice. In order to determine the potential in vivo activity of PIM1 (SFPIM135) and isoPIM1-2C16 (SFPIM91), they were tested for their inhibitory activity in a murine model of acute pulmonary inflammation and respiratory distress induced by intranasal application of LPS (1 μg/mouse).
C57BL/6 mice received an intranasal application of 1 μg of LPS, and Penh was recorded for 200 minutes using noninvasive plethysmography. […]

IL-6 = IL-6 expression by primary macrophages stimulated with LPS with or without IFNγ (ELISA); format: cell-based, mouse; settings: LPS in the presence or absence of interferon-γ, 10 μg/ml (FIG. 5)
Description: as §1, §2, §3

KC [4] = experiment: KC in bronchoalveolar lavage fluid after intranasal LPS (ELISA); format: in vivo; settings: 24 hours after intranasal 1 μg LPS, coadministration 50 μg/mouse (FIG. 10)
Description: as §7, §8
(§9) The TNF and KC concentrations were evaluated by enzyme-linked immunosorbent assay (ELISA) in accordance with the instructions of the manufacturer (R&D Duoset, Minneapolis, Mo.).
Neutrophil recruitment depends on various factors, including chemokine KC, even though it is not critically dependent on TNF [23]. In FIG. 10, the treated mice are sacrificed 24 hours after the intranasal application of 1 μg of LPS and the bronchoalveolar fluid is analyzed in order to determine the chemokine KC content. […]

TNF = TNF in bronchoalveolar lavage fluid after intranasal LPS (ELISA); format: in vivo; settings: coadministration 50 μg/mouse (FIG. 11)
Description: as §7, §8, §9

[5] = system: inflammatory cytokines and chemokines; experiment: Additional experiments: inflammatory cytokines and chemokines in lungs exposed to endotoxins; format: in vivo
[6] = titrated at 1, 3, 10, 30 μg/ml (FIG. 15)

Compound: CCCCCCCCCCCCCCCCCC(=O)OC[C@H](COP(=O)(O)O[C@@H]1[C@H](O)[C@@H](O)[C@H](O)[C@@H](O)[C@@H]1OC1O[C@H](CO)[C@@H](O)[C@H](O)[C@@H]1O)OC(=O)CCCCCCCCCCCCCCC (stereo partly drawn) [isoPIM1-C16C18, 1-O-α-D-mannopyranosyl-2-O—[((S)-2-O-hexadecanoyl-3-O-octadecanoylpropyl)phosphoryl]-D-myo-inositol]
- TNF secretion (TNF-α; 1-10 μg/ml (FIG. 12)): strongly inhibits
- TNF secretion (TNF-α; [6]): strongly inhibit
- IL-12p40 secretion in response to LPS (IL-12p40; 1 μg/ml (FIG. 14)): greatly inhibited
- IL-12p40 secretion in response to LPS (IL-12p40; 10 μg/ml (FIG. 17)): virtually abolished
- cytotoxicity on macrophages (MTT) (macrophages; titrated at 1, 3 and 10 μg/ml (FIG. 13)): lack of cytotoxicity

Compound: CCCCCCCCCCCCCCCCCC(=O)OC[C@@H](COP(=O)(O)OC1C(O[C@H]2O[C@H](CO)[C@@H](O)[C@H](O)[C@@H]2O)CN(C(=O)C(F)(F)F)CC1O[C@H]1O[C@H](CO)[C@@H](O)[C@H](O)[C@@H]1O)OC(=O)CCCCCCCCCCCCCCC (stereo partly shown) [PIM-2-mimNCOCF3]
- TNF secretion (TNF-α; [6]): strongly inhibit
- IL-12p40 secretion in response to LPS (IL-12p40; 10 μg/ml (FIG. 17)): virtually abolished

Compound: CCCCCCCCCCCCCCCCCC(=O)OC[C@@H](COP(=O)(O)O[C@@H]1[C@@H](O[C@H]2O[C@H](CO)[C@@H](O)[C@H](O)[C@@H]2O)CNC[C@H]1O[C@H]1O[C@H](CO)[C@@H](O)[C@H](O)[C@@H]1O)OC(=O)CCCCCCCCCCCCCCC [PIM-2-mimNH]
- TNF secretion (TNF-α; [6]): inhibit less strongly
- IL-12p40 secretion in response to LPS (IL-12p40; 10 μg/ml (FIG. 17)): partially inhibit
- cytotoxicity (MTT cell viability) (macrophages; at the highest concentration (FIG. 16)): a certain cytotoxicity

Compound: 1-O-α-D-mannopyranosyl-2-O—[((S)-2,3-dipalmitoyloxy-propyl)phosphoryl]-D-myo-inositol [isoPIM1-2C16]
- TNF-α synthesis induced in LPS-stimulated macrophages (TNF-α; titrated at 1, 3 and 10 μg/ml (FIG. 3)): strongly inhibits
- production of chemokine KC (KC [1]): more strongly
- number of inflammatory cells detected in the BAL (C57BL/6 mice [2]; 18 hours after application of LPS, 50 μg/mouse intranasal (FIG. 9)): partially reduced
- reduction in the number of neutrophils (C57BL/6 mice [2]; BAL, observed in 2 mice out of 3, 50 μg/mouse intranasal): ≤ 70%
- enhancement of Penh induced by LPS (C57BL/6 mice [3]; 50 μg/mouse with LPS 1 μg/mouse, nasal instillation (FIG. 8)): even more pronounced
- pulmonary inflammation and resistance of the respiratory tracts in response to local endotoxins (C57BL/6 mice [3]; summary of the in vivo experiments): marked inhibition
- expression of IL-6 by the macrophages (IL-6): also inhibited
- IL-12p40 secretion in response to LPS (IL-12p40; 1 μg/ml (FIG. 6)): inhibition
- secretion of KC in the bronchoalveolar space (KC [4]): greatly reduced
- release of TNF in the bronchoalveolar space (TNF): more strongly
- cytotoxicity (MTT) (macrophages; titrated at 1, 3 and 10 μg/ml (FIG. 4)): absence of cytotoxicity
- expression of several other inflammatory cytokines and chemokines in lungs exposed to endotoxins [5]: decrease in expression
